Measured values as given in publication PMC9953224, “Pharmacokinetic Evaluation of New Drugs Using a Multi-Labelling Approach and PET Imaging: Application to a Drug Candidate with Potential Application in Neuromuscular Disorders” (Biomedicines, 2023).

Key:
[1] = PET biodistribution after intravenous administration; assay type: in vivo, rats; conditions: 1 µg/Kg
Procedure: Rats were anesthetized by inhalation of 5% isoflurane (IsoFlo®, Abbott Laboratories, Abbott Park, IL, USA) in pure O2 and maintained by 1.5–2% isoflurane in 100% O2. During imaging, rats were kept normothermic using a heating blanket (Homeothermic Blanket Control Unit; Bruker). For intravenous administration, once the animal was under anaesthesia, one of the lateral tail veins was catheterized with a 24-gauge catheter (Introcan Certo®, Bbraun) and [^11C]AHK2.1 or [^11C]AHK2.2 was injected using saline solution as the vehicle (n = 3 for each radiolabelled compound, 26 ± 5 MBq; dose adjusted to 1 µg/Kg) concomitantly with the start of a PET dynamic acquisition. Whole body dynamic images were acquired in 4 bed positions (21 frames: 5 × 5 s per bed, 5 × 30 s per bed, 5 × 60 s per bed, 6 × 120 s per bed; total acquisition time = 79.6 min) in the 400–700 keV energetic window using an eXploreVista-CT small animal PET-CT system (GE Healthcare, Waukesha, WI, USA). After each PET scan, CT acquisitions were also performed (140 µA intensity, 40 kV voltage) to provide anatomical information of each animal as well as the attenuation map for the later reconstruction of the PET images. […] After reconstruction, PET-CT images of the same animal were co-registered and analysed using PMOD image processing tool (PMOD Technologies Ltd., Zürich, Switzerland). […]

FKBP12 = target: T1, FKBP12 (Homo sapiens, UniProt P62942); experiment: Competitive ligand binding assay (FKBP/FRB NanoBiT luminescence protein complementation) in HEK293 cells; assay type: cell-based; conditions: rapamycin 30 nM
T1 construct: host or cells: HEK293
Procedure: Briefly, HEK293 (ATCC) cells were transfected with FKBP/FRB NanoBiT Control Pair (Promega, Madison, WI, USA) and kinetic measurements were performed 24 h after transfection with Nano-Glo Live Cell Reagent (Promega), as described by the manufacturer. A total of 30 nM rapamycin (Sigma-Aldrich, Madrid, Spain) and AHK2 (1 μM–10 mM) was sequentially added and each effect was recorded for 10 min. Specific activity was normalized to vehicle, and IC50 was calculated using GraphPad Prism by fitting the data to a four-parameter logistic curve.

[2] = Pharmacokinetics from metabolite-corrected arterial plasma TACs after intravenous administration; assay type: in vivo, Sprague Dawley Rats
Procedure: (§1) Anaesthesia was induced with 5% isoflurane (IsoFlo®, Abbott Laboratories, Abbott Park, IL, USA) and maintained by 2% of isoflurane in 100% O2. During the experiment, rats were kept normothermic using a heating blanket (Homeothermic Blanket Control Unit; Bruker). The rat was positioned in supine position on an operating table and the two distal hind limbs were fixed forming an approximately 30° angle with the horizontal plane. The surgical region was scrubbed using Betadine, starting in the centre, and making a circular sweep outward. A skin incision was made in the femoral region. Soft tissue was dissected to expose the femoral neurovascular bundle, consisting of femoral vein, artery, and nerve. Fine tip forceps were placed between the artery, vein and nerve and were slowly opened to separate the vessels, exposing an approximately 1 cm length section of artery/vein. The vena profunda femoris was sutured to avoid retrograde bleeding via this vessel, and the sapheno-femoral junction was cauterized. A few millimetres from venatomy, a vascular clip was inserted in the direction of the catheter (to control the flow) and a suture was applied in the opposite direction (to avoid retrograde bleeding). The same operation was carried out both on the femoral vein and femoral artery. An appropriate syringe filled with 50 U/mL Heparin/physiologic saline solution was fixed at the terminus of the catheters and these were filled with heparinized saline solution. On the upper half of the vessel circumference, at a 45° angle, an incision was made and the catheter (fine bore polythene tubing: ID 0.58 mm, OD 0.98 mm) was inserted through the venotomy and advanced to the vascular clip. The vascular clip was then removed, and the catheter advanced distally towards the level of the inguinal ligament. The catheter was finally secured to the femoral vein/artery proximally and distally with 2 single knots using 4–0 braided silk suture. The catheters were connected to an in-house developed system composed by a peristaltic pump and gamma-radiation coincidence detector (Bioscan, B-FC-4100). The femoral artery catheter, the gamma detector, the peristaltic pump, and the femoral vein catheter were thus connected in series, to enable the extracorporeal circulation of blood (flow 150 μL/s from femoral artery to femoral vein) and continuous measurement of radioactivity in the blood (Figure 1).
(§2) The labelled compounds were administrated two different ways: (i) intravenous bolus infusion (ca. 37 MBq in 300 μL of saline solution was injected through the femoral vein catheter) and (ii) oral bolus administration. For oral administration, animals were fasted for 5 h. The radioactive dose (ca. 74 MBq in 300 μL of saline solution) was administered using flexible 20-gauge disposable flexible PTFE feeding needles (Fine Science Tools, F.S.T.) and a small animal Laryngoscope (Penn-Century, Model LS-2) for the correct visualization of the oesophagus. The study was conducted under no carrier added (NCA, dose adjusted to 1 μg/Kg) and carrier added (CA, dose adjusted to 5 mg/Kg) conditions. In all cases, data were imported in real time to an excel sheet using PLX-DAX add-on for Microsoft Excel (measured in volts per second).
(§3) Arterial blood samples (1 per animal) were withdrawn (see Figure 1) from the femoral artery catheter and introduced into a capillary (Microhaematocrit capillaries 75 × 1.55, Nahita). Samples were centrifuged at 11,000× g […] for 10 min and the haematocrit was determined. A second blood sample was withdrawn and the amount of radioactivity of a fixed volume (10 µL) was measured in an automatic gamma counter (2470 Wizard, PerkinElmer) to determine Cb (concentration of radioactivity in blood) and convert data imported with PLX-DAX (Volts per seconds) into Bq/s using a previously determined calibration curve. Values were then expressed as percentage of injected dose per gram of blood (% ID/g). […]

[3] = Pharmacokinetics from metabolite-corrected arterial plasma TACs after oral administration; assay type: in vivo, Sprague Dawley Rats
Procedure: as §1, §2, §3

T1 sequence (P62942 whole entry): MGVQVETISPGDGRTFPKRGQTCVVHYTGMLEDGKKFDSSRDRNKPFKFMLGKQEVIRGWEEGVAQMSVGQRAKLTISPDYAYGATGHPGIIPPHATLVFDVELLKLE

SMILES | biodistribution of radioactivity in dynamic PET images [1] | induction of FKBP12/FRB dimerization (luminescence) (FKBP12) | Cp/Cb ratio (radioactivity in plasma / blood) ([2]; arterial blood, rat) | percentage of radioactivity in plasma ([2]; from Cp/Cb and haematocrit 0.44 ± 0.04) | Hill function parameter d (initial level of parent fraction) ([2]; intravenous) | Hill function parameter a (plateau of parent fraction in plasma) ([2]; intravenous, 1 µg/Kg) | Hill function parameter a (plateau of parent fraction in plasma) ([2]; intravenous, 5 mg/Kg) | Hill function parameter d (initial level of parent fraction) [3] | Hill function parameter a (plateau of parent fraction in plasma) ([3]; 1 µg/Kg) | Hill function parameter a (plateau of parent fraction in plasma) ([3]; 5 mg/Kg)
CN(C)CCn1cc(CSc2ccc(O[11CH3])cc2)nn1 [[^11C]AHK2.2] | rapid accumulation of radioactivity in the kidneys and elimination via urine |  |  |  |  |  |  |  |  | 
CO[C@H]1C[C@@H]2CC[C@@H](C)[C@@](O)(O2)C(=O)C(=O)N2CCCC[C@H]2C(=O)O[C@H]([C@H](C)C[C@@H]2CC[C@@H](O)[C@H](OC)C2)CC(=O)[C@H](C)/C=C(\C)[C@@H](O)[C@@H](OC)C(=O)[C@H](C)C[C@H](C)/C=C/C=C/C=C/1C [rapamycin, reference compound] |  | induced |  |  |  |  |  |  |  | 
COc1ccc(SCc2cn(CCN(C)[11CH3])nn2)cc1 [[^11C]AHK2.1] | accumulation in the gastrointestinal tract, the kidneys and the bladder |  | 1.44 ± 0.2 | ca. 81% | 1 | 0.075 | 0.29 | 1 | 0.10 | 0.13
